Assays:
Assay type in all cases: in vivo
[1] = system: Rox orange sorghum (Sorghum bicolor); test: Preemergence herbicidal activity, Rox orange sorghum; details: 4.4 g/Ha, soil spray, visual after 3 weeks; 0 no injury, 100 complete kill or no germination
Experimental: (§1) The soil matrix was contained in plastic pots with a surface area of 161 square centimeters. When required to ensure good germination and healthy plants, a fungicide treatment and/or other chemical or physical treatment was applied. A weighed amount, determined by the highest rate to be tested, of each test compound was placed in a 20 mL glass vial and was dissolved in 8 mL of a 97:3 v/v (volume/volume) mixture of acetone and dimethyl sulfoxide to obtain concentrated stock solutions. […] The stock solutions obtained were diluted with a 99.9:0.1 mixture of water and Tween® 155 surfactant (ethoxylated sorbitan fatty acid ester) to obtain application solutions of known concentration. The solutions containing the highest concentration to be tested were prepared by diluting 4 mL aliquots of the stock solution with 8.5 mL of the mixture and lower concentrations were prepared by dilution of appropriate smaller portions of the stock solution. A 2.5 mL aliquot of each solution of known concentration was sprayed evenly onto the soil of each seeded pot using a Cornwall 5.0 mL glass syringe fitted with a TeeJet TN-3 hollow cone nozzle to obtain thorough coverage of the soil in each pot. Control pots were sprayed in the same manner with the aqueous mixture. A highest application rate of 4.48 kg/ha is achieved when 50 mg of test compound is employed. The treated pots and control pots were placed in a greenhouse with an approximately 15 hr photoperiod which was maintained at about 23-29° C. during the day and 22-28° C. during the night. Nutrients and water were added on a regular basis and supplemental lighting was provided with overhead metal halide 1000 Watt lamps as necessary. The water was added by top-irrigation. After 3 weeks the condition of the test plants that germinated and grew as compared with that of the untreated plants that germinated and grew was determined visually and scored on a scale of 0 to 100 percent where 0 corresponds to no injury and 100 corresponds to complete kill or no germination.

[2] = system: barnyardgrass (Echinochloa crus-galli); test: Preemergence herbicidal activity, barnyardgrass; details: 4.4 g/Ha, soil spray, visual after 3 weeks; 0 no injury, 100 complete kill or no germination
Experimental: as §1

[3] = system: lambsquarters (Chenopodium album); test: Preemergence herbicidal activity, lambsquarters; details: 4.4 g/Ha, soil spray, visual after 3 weeks; 0 no injury, 100 complete kill or no germination
Experimental: as §1

[4] = system: giant foxtail (Setaria faberi); test: Preemergence herbicidal activity, giant foxtail; details: 4.4 g/Ha, soil spray, visual after 3 weeks; 0 no injury, 100 complete kill or no germination
Experimental: as §1

[5] = system: cocklebur (Xanthium strumarium); test: Postemergence herbicidal activity, cocklebur; details: 15.6 ppm, foliar spray, visual after 2 weeks; 0 no injury, 100 complete kill
Experimental: (§2) Seeds of the desired test plant species were planted in Grace-Sierra MetroMix® 306 planting mixture, which typically has a pH of 6.0 to 6.8 and an organic matter content of about 30 percent, in plastic pots with a surface area of 64 square centimeters. When required to ensure good germination and healthy plants, a fungicide treatment and/or other chemical or physical treatment was applied. The plants were grown for 7-21 days in a greenhouse with an approximately 15 hr photoperiod which was maintained at about 23-29° C. during the day and 22-28° C. during the night. Nutrients and water were added on a regular basis and supplemental lighting was provided with overhead metal halide 1000 Watt lamps as necessary. The plants were employed for testing when they reached the first or second true leaf stage. A weighed amount of each test compound, determined by the highest rate to be tested, was placed in a 20 mL glass vial and was dissolved in 4 mL of a 97:3 v/v (volume/volume) mixture of acetone and dimethyl sulfoxide to obtain concentrated stock solutions. […] The concentrated stock solutions obtained were diluted with an aqueous mixture containing acetone, water, iso-propyl alcohol, dimethyl sulfoxide, Atplus 411F crop oil concentrate, and Triton X-155 surfactant (methylenebisdiamyl phenoxy polyethoxy ethanol) in a 48.5:39:10:1.5:1.0:0.02 v/v ratio to obtain spray solutions of known concentration. The solutions containing the highest concentration to be tested were prepared by diluting 2 mL aliquots of the stock solution with 13 mL of the mixture and lower concentrations were prepared by dilution of appropriate smaller portions of the stock solution. Approximately 1.5 mL aliquots of each solution of known concentration were sprayed evenly onto each of the test plant pots using a DeVilbiss atomizer driven by compressed air pressure of 2 to 4 psi (140 to 280 kilopascals) to obtain thorough coverage of each plant. Control plants were sprayed in the same manner with the aqueous mixture. In this test an application rate of 1 ppm results in the application of approximately 1 g/ha. The treated plants and control plants were placed in a greenhouse as described above and watered by sub-irrigation to prevent wash-off of the test compounds. After 2 weeks the condition of the test plants as compared with that of the untreated plants was determined visually and scored on a scale of 0 to 100 percent where 0 corresponds to no injury and 100 corresponds to complete kill.

[6] = system: blackgrass (Alopecurus myosuroides); test: Preemergence herbicidal activity, blackgrass; details: 4.4 g/Ha, soil spray, visual after 3 weeks; 0 no injury, 100 complete kill or no germination
Experimental: as §1

[7] = system: crabgrass (Digitaria sanguinalis); test: Preemergence herbicidal activity, crabgrass; details: 4.4 g/Ha, soil spray, visual after 3 weeks; 0 no injury, 100 complete kill or no germination
Experimental: as §1

[8] = system: wild poinsettia (Euphorbia heterophylla); test: Preemergence herbicidal activity, wild poinsettia; details: 4.4 g/Ha, soil spray, visual after 3 weeks; 0 no injury, 100 complete kill or no germination
Experimental: as §1

[9] = system: velvetleaf (Abutilion theophrasti); test: Preemergence herbicidal activity, velvetleaf; details: 4.4 g/Ha, soil spray, visual after 3 weeks; 0 no injury, 100 complete kill or no germination
Experimental: as §1

[10] = system: lambsquarters (Chenopodium album); test: Postemergence herbicidal activity, lambsquarters; details: 15.6 ppm, foliar spray, visual after 2 weeks; 0 no injury, 100 complete kill
Experimental: as §2

[11] = system: morningglory (Ipomoea hederacea); test: Postemergence herbicidal activity, morningglory; details: 15.6 ppm, foliar spray, visual after 2 weeks; 0 no injury, 100 complete kill
Experimental: as §2

[12] = system: cocklebur (Xanthium strumarium); test: Preemergence herbicidal activity, cocklebur; details: 4.4 g/Ha, soil spray, visual after 3 weeks; 0 no injury, 100 complete kill or no germination
Experimental: as §1

[13] = system: morningglory (Ipomoea hederacea); test: Preemergence herbicidal activity, morningglory; details: 4.4 g/Ha, soil spray, visual after 3 weeks; 0 no injury, 100 complete kill or no germination
Experimental: as §1

[14] = system: chickweed (Stellaria media); test: Postemergence herbicidal activity, chickweed; details: 15.6 ppm, foliar spray, visual after 2 weeks; 0 no injury, 100 complete kill
Experimental: as §2

[15] = system: pigweed (Amaranthus retroflexus); test: Postemergence herbicidal activity, pigweed; details: 15.6 ppm, foliar spray, visual after 2 weeks; 0 no injury, 100 complete kill
Experimental: as §2

wild oats (Avena fatua) [16] = test: Postemergence herbicidal activity, wild oats; details: 15.6 ppm, foliar spray, visual after 2 weeks; 0 no injury, 100 complete kill
Experimental: as §2

[17] = system: pigweed (Amaranthus retroflexus); test: Preemergence herbicidal activity, pigweed; details: 4.4 g/Ha, soil spray, visual after 3 weeks; 0 no injury, 100 complete kill or no germination
Experimental: as §1

[18] = system: Rox orange sorghum (Sorghum bicolor); test: Postemergence herbicidal activity, Rox orange sorghum; details: 15.6 ppm, foliar spray, visual after 2 weeks; 0 no injury, 100 complete kill
Experimental: as §2

viola (Viola tricolor) = test: Postemergence herbicidal activity, viola; details: 15.6 ppm, foliar spray, visual after 2 weeks; 0 no injury, 100 complete kill
Experimental: as §2

[19] = system: wild buckwheat (Polygonum convolvulus); test: Postemergence herbicidal activity, wild buckwheat; details: 15.6 ppm, foliar spray, visual after 2 weeks; 0 no injury, 100 complete kill
Experimental: as §2

[20] = system: velvetleaf (Abutilion theophrasti); test: Postemergence herbicidal activity, velvetleaf; details: 15.6 ppm, foliar spray, visual after 2 weeks; 0 no injury, 100 complete kill
Experimental: as §2

[21] = system: giant foxtail (Setaria faberi); test: Postemergence herbicidal activity, giant foxtail; details: 15.6 ppm, foliar spray, visual after 2 weeks; 0 no injury, 100 complete kill
Experimental: as §2

[22] = system: blackgrass (Alopecurus myosuroides); test: Postemergence herbicidal activity, blackgrass; details: 15.6 ppm, foliar spray, visual after 2 weeks; 0 no injury, 100 complete kill
Experimental: as §2

wild oats (Avena fatua) [23] = test: Preemergence herbicidal activity, wild oats; details: 4.4 g/Ha, soil spray, visual after 3 weeks; 0 no injury, 100 complete kill or no germination
Experimental: as §1

COc1csc(C)c1S(=O)(=O)Nc1nc2c(OC)cnc(OC)n2n1 [Compound 23]
80%: ECHCG preemergence injury score 0-100 [2] | CHEAL postemergence injury score 0-100 [10] | IPOHE preemergence injury score 0-100 [13] | STEME postemergence injury score 0-100 [14]
40%: IPOHE postemergence injury score 0-100 [11]
90%: CHEAL preemergence injury score 0-100 [3] | XANST postemergence injury score 0-100 [5] | EPHHL preemergence injury score 0-100 [8] | ABUTH preemergence injury score 0-100 [9] | AMARE postemergence injury score 0-100 [15] | SORBI postemergence injury score 0-100 [18] | ABUTH postemergence injury score 0-100 [20] | SETFA postemergence injury score 0-100 [21] | AVEFA preemergence injury score 0-100 (wild oats (Avena fatua) [23])
100%: SORBI preemergence injury score 0-100 [1] | DIGSA preemergence injury score 0-100 [7] | AMARE preemergence injury score 0-100 [17]
75%: POLCO postemergence injury score 0-100 [19]
98%: SETFA preemergence injury score 0-100 [4] | ALOMY preemergence injury score 0-100 [6]
70%: XANST preemergence injury score 0-100 [12] | AVEFA postemergence injury score 0-100 (wild oats (Avena fatua) [16]) | VIOTR postemergence injury score 0-100 (viola (Viola tricolor)) | ALOMY postemergence injury score 0-100 [22]

COc1csc(Cl)c1S(=O)(=O)Nc1nc2c(OC)cnc(OC)n2n1 [Compound 18]
90%: EPHHL preemergence injury score 0-100 [8] | ABUTH preemergence injury score 0-100 [9] | CHEAL postemergence injury score 0-100 [10] | XANST preemergence injury score 0-100 [12] | STEME postemergence injury score 0-100 [14] | SETFA postemergence injury score 0-100 [21]
70%: ALOMY postemergence injury score 0-100 [22]
100%: SORBI preemergence injury score 0-100 [1] | ECHCG preemergence injury score 0-100 [2] | CHEAL preemergence injury score 0-100 [3] | SETFA preemergence injury score 0-100 [4] | XANST postemergence injury score 0-100 [5] | ALOMY preemergence injury score 0-100 [6] | AMARE postemergence injury score 0-100 [15] | SORBI postemergence injury score 0-100 [18] | VIOTR postemergence injury score 0-100 (viola (Viola tricolor))
75%: IPOHE postemergence injury score 0-100 [11]
95%: AVEFA postemergence injury score 0-100 (wild oats (Avena fatua) [16]) | AMARE preemergence injury score 0-100 [17] | POLCO postemergence injury score 0-100 [19]
85%: ABUTH postemergence injury score 0-100 [20]
98%: DIGSA preemergence injury score 0-100 [7]
80%: IPOHE preemergence injury score 0-100 [13] | AVEFA preemergence injury score 0-100 (wild oats (Avena fatua) [23])

From US6645918B1, “N-([1,2,4]triazoloazinyl)thiophenesulfonamide compounds and their use as herbicides” (Dow AgroSciences LLC, priority 2000, dated 2003)
